Measurements as given in patent US20220280594A1, “APPLICATION OF POLYPEPTIDE OR DERIVATIVE THEREOF” (CHENGDU HUITAI BIOMEDICINE CO., LTD., priority 2019, published 2022).
Ends that are not written are not given here. PEG = not defined here

Legend:
[1] = tested on: human pancreatic cancer cells (PANC-1) subcutaneous xenograft; assay: pancreatic cancer subcutaneous xenograft animal model, intratumoral injection; format: in vivo, mice (BALB/c-nu/nu); details: PANC-1 xenograft, intratumoral 5 mg/kg once every other day, 25 days; for Weight of tumor (g) (mean ± SD): control 1.2 ± 0.11; for Volume of tumor (mm^3) (mean ± SD): control 1431.72 ± 174.33
Procedure: (§1) Experimental animals: 4-6 weeks old female immunodeficiency mice (BALB/c-nu/nu, Beijing Vital River Laboratory Animal Technology Co., Ltd.).
(§2) Subcutaneous xenograft animal model. The number of cells inoculated subcutaneously vin mice was about 2×10^6/200 μL. When the volume of the subcutaneous tumor was greater than 100 mm^3, the mice were randomly divided into groups and subjected to treatment. When the mass volume of the tumors in model control group reached 2000 mm^3 or the animal dies, the treatment ended. The animals were dissected, the tumors were taken out, and the weight and volume of the tumors were measured. During the period of the entire experiment, the mice were observed and the body weight was measured every other day.
The method used in the efficacy test on the pancreatic cancer subcutaneous xenograft animal model was as described in Example 5. The pancreatic cancer cells were human pancreatic cancer cells (PANC-1), and the route of administration was intratumoral injection. The experimental groups were model control group and polypeptide or derivative thereof treatment groups (N1-N12). The drug dosage of the N1-N12 treatment group was 5mg/kg, once every other day, and the treatment time was 25 days.

[2] = effect on coagulation function in mice (ACT); format: in vivo, C57BL/6J mice; details: 200 mg/kg tail vein once a day until Day 24, blood on Day 25; control group 73.50 ± 7.15
Procedure: C57BL/6J mice were used as experimental subjects (purchased from Chengdu Dashuo Experimental Animal Co., Ltd., male, weighing 16-17 g). Sterile saline or peptide drugs were injected via the tail vein once a day until Day 24. The mice in the control group were injected with sterile saline, and the mice in the administration groups (N1-N12) were injected with polypeptide drugs (200 mg/kg). There were three experimental animals in each group. On Day 25, the eyeballs were removed and blood ([…]) was taken. The coagulation function of the mice was detected by the Abbott i-STAT blood gas analyzer with the ACT test card.

[3] = tested on: vimentin; assay: vimentin expression in SK-HEP-1 cells (ELISA); format: cell-based, human; details: SK-HEP-1, 10 μM, 24 hours, control group 1.2 ± 0.01
Procedure: (§3) SK-HEP-1 cells were cultured in vitro, cells in the logarithmic growth phase were collected, and the cells were seeded evenly in a 24-well plate at a density of 1-3×10^5 cells/well. The cells were cultured in a cell incubator for 4-5 h. PBS was added to the control group. PBS containing polypeptide or derivative thereof (N1-N12) was added to the treatment group. The final concentration of the polypeptide or derivative thereof in the well was 10 μM. After incubating for 24 hours, the cells were collected and the total protein was extracted. ELISA was used to detect the content of fibronectin in total protein.
The experimental method for testing the inhibition on the expression of vimentin in human liver adenocarcinoma cells (SK-HEP-1) by the polypeptide or derivative thereof (N1-N12) was as described in Example 19.

[4] = tested on: human lung cancer cells (A549) subcutaneous xenograft; assay: lung cancer subcutaneous xenograft animal model, intratumoral injection; format: in vivo, mice (BALB/c-nu/nu); details: intratumoral 5 mg/kg once every other day, 10 days; for Weight of tumor (g) (mean ± SD): control 1.45 ± 0.15; for Volume of tumor (mm^3) (mean ± SD): control 1269.32 ± 115.39
Procedure: as §1, §2
The method used for the drug efficacy test in the animal model of the subcutaneous xenograft derived from lung cancer cells was as described in Example 5. The tumor cells were human lung cancer cells (A549), and the route of administration was intratumoral injection. There were two groups: the model control group and the polypeptide or its derivative treatment group (N1-N12). The drug dosage of the treatment group was 5 mg/kg, once every other day and the treatment time was 10 days.
The procedure of the efficacy test in this example, route and dosage of administration were the same as in Example 9. The peptides used in the experiment were N13-N32. The treatment time was 20 days.

[5] = tested on: fibronectin; assay: fibronectin expression in SK-HEP-1 cells (ELISA); format: cell-based, human; details: SK-HEP-1, 10 μM, 24 hours, control group 1.62 ± 0.09
Procedure: as §3

[6] = tested on: N-cadherin; assay: N-cadherin expression in SK-HEP-1 cells (ELISA); format: cell-based, human; details: SK-HEP-1, 10 μM, 24 hours, control group 1.12 ± 0.03
Procedure: as §3
The experimental method for testing the inhibition on the expression of N-cadherin in human liver adenocarcinoma cells (SK-HEP-1) by the polypeptide or derivative thereof (N1-N12) was as described in Example 19.

Substance | Weight of tumor (g) (mean ± SD) [1] | Volume of tumor (mm^3) (mean ± SD) [1] | Activated clotting time (s) (mean ± SD) [2] | Relative protein level (mean ± SD, P), vimentin [3] | Weight of tumor (g) (mean ± SD) [4] | Volume of tumor (mm^3) (mean ± SD) [4] | Relative protein level (mean ± SD, P), fibronectin [5] | Relative protein level (mean ± SD, P), N-cadherin [6]
N6: SEQ ID NO: 1 with deletion of four amino acids at the carboxyl terminal (positions 15-18) (YRVRFLAKENVTQD) | 0.61 ± 0.07 | 538.26 ± 121.04 | 74.09 ± 8.51 | 0.81 ± 0.03, **** | 0.79 ± 0.18 | 769.35 ± 155.34 | 1.33 ± 0.04,** | 0.83 ± 0.04,***
N9: SEQ ID NO: 1 with deletion of positions 15-18 and PEG modification at the amino terminal ({PEG}-YRVRFLAKENVTQD; reading uncertain) | 0.5 ± 0.09 | 765.6 ± 105.04 | 72.09 ± 8.07 | 1.03 ± 0.05, ** | 0.72 ± 0.09 | 781.14 ± 123.66 | 1.33 ± 0.09,* | 0.73 ± 0.04,***
N11: SEQ ID NO: 1 with deletion of positions 15-18 and 1-3 and PEG modification at the amino terminal ({PEG}-RFLAKENVTQD; reading uncertain) | 0.62 ± 0.12 | 785.02 ± 147.38 | 75.18 ± 7.99 | 0.94 ± 0.05, *** | 0.73 ± 0.08 | 756.57 ± 204.03 | 1.39 ± 0.01,* | 0.73 ± 0.04,***
N10: SEQ ID NO: 1 with deletion of positions 15-18 and 1-3 and PEG modification at the carboxyl terminal (RFLAKENVTQD-{PEG}; reading uncertain) | 0.57 ± 0.11 | 667.99 ± 188.73 | 73.27 ± 7.36 | 0.88 ± 0.06, *** | 0.75 ± 0.07 | 705.83 ± 182.18 | 1.3 ± 0.05,** | 0.69 ± 0.03,****
N5: SEQ ID NO: 1 with addition of one amino acid at the carboxyl terminal and deletion of positions 1-3 (RFLAKENVTQDAEDNC) | 0.54 ± 0.1 | 696.52 ± 127.05 | 72.91 ± 8.04 | 0.87 ± 0.03, **** | 0.69 ± 0.14 | 738.11 ± 167.03 | 1.3 ± 0.11,* | 0.83 ± 0.04,***
N7: SEQ ID NO: 1 with addition of one amino acid at the carboxyl terminal and substitution A15R (YRVRFLAKENVTQDREDNC) | 0.74 ± 0.09 | 671.47 ± 150.71 | 73.27 ± 8.43 | 1 ± 0.03, *** | 0.81 ± 0.16 | 741.86 ± 147.66 | 1.36 ± 0.04,* | 0.73 ± 0.06,***
N8: SEQ ID NO: 1 with deletion of positions 15-18 and positions 3, 4 and 11 (YRFLAKENTQD) | 0.59 ± 0.11 | 769.54 ± 160.54 | 74 ± 8.92 | 0.81 ± 0.03, **** | 0.68 ± 0.11 | 783.99 ± 69.19 | 1.33 ± 0.11,* | 0.7 ± 0.06,***
N12: SEQ ID NO: 1 with deletion of position 18 and positions 1-2 (VRFLAKENVTQDAED) | 0.71 ± 0.09 | 863.2 ± 129.61 | 75.55 ± 7.61 | 0.71 ± 0.03, **** | 0.73 ± 0.09 | 726.15 ± 144.96 | 1.23 ± 0.07,** | 0.58 ± 0.03,***
N1: polypeptide with the amino acid sequence set forth in SEQ ID NO: 1 (YRVRFLAKENVTQDAEDN) | 0.52 ± 0.13 | 704.1 ± 152.43 | 73.64 ± 9.31 | 0.97 ± 0.03, *** | 0.87 ± 0.08 | 851.64 ± 67.38 | 1.3 ± 0.02,** | 0.83 ± 0.04,***
N3: SEQ ID NO: 1 with deletion of position 18 and PEG modification at the amino terminal ({PEG}-YRVRFLAKENVTQDAED; reading uncertain) | 0.6 ± 0.1 | 695.11 ± 111.9 | 72.55 ± 8.27 | 0.96 ± 0.05, ** | 0.79 ± 0.18 | 712.59 ± 200.32 | 1.26 ± 0.09,** | 0.87 ± 0.09,*
N4: SEQ ID NO: 1 with deletion of positions 15-18 and positions 1-3 (RFLAKENVTQD) | 0.62 ± 0.07 | 673.03 ± 157.33 | 73.64 ± 8.12 | 0.95 ± 0.03, *** | 0.63 ± 0.12 | 740.79 ± 140.87 | 1.23 ± 0.11,** | 0.93 ± 0.04,**
N2: SEQ ID NO: 1 with deletion of one amino acid (position 18) at the carboxyl terminal (YRVRFLAKENVTQDAED) | 0.72 ± 0.12 | 761.37 ± 150.52 | 74.82 ± 9.62 | 0.91 ± 0.03, **** | 0.86 ± 0.13 | 809.89 ± 129.93 | 1.23 ± 0.08,** | 0.93 ± 0.04,**
